Consider 2 molecules from PMC4639830, “Inhibition of DYRK1A and GSK3B induces human β-cell proliferation” (Nature Communications, 2015).

For orientation: inhibition means the drop in the measured response relative to a control, in per cent.

Assay [1] deals with human islets. Description: Human islets treated 7 days: DNA, ATP, IEQ, insulin content, GSIS. In kind it is cell-based. As to conditions: for DNA and ATP content and islet equivalent units (IEQ) compared with vehicle / insulin secretory capacity (GSIS): 6.7 μM GNF7156 or 2 μM GNF4877. How it is done: Human islets were evaluated for glucose stimulated insulin secretion using standard methods. Secreted insulin was monitored using an ELISA (Meso-scale Devices) and normalized to total DNA (PicoGreen, Invitrogen).
Rat or human β-cell proliferation assays were performed using dissociated primary rat or human islets. Islets were treated with the indicated compounds in the presence of EdU for 4 days before fixing and staining. EdU incorporation was measured by click reaction with AlexaFluor-647-azide (Invitrogen). For intact islet assays, primary human islets were treated for 7 or 8 days (as indicated in the legend). Rat dissociated islets were cultured in RPMI medium containing 10% FBS and human dissociated islets were cultured in PIM-S media (Prodo laboratories) with 10% human […].

The subject of assay [2] is Wnt-driven luciferase reporter in TM3 cells. Briefly: Wnt-driven luciferase reporter gene (Super Top Flash). In kind it is cell-based. The text has this:
Supplementary Figure 8. Selective Dyrk1a inhibition is sufficient to induce β-cell proliferation.
Top Flash) in TM3 cells (mean ± SD; n=3). (b) GNF6324-treated primary rat islets were
immunostained for nuclear localization of β-catenin in EdU and insulin co-positive cells. Co-
vehicle control cells. Scale bar = 20 µm. (c-e) Selective Dyrk1a inhibitors stimulate EdU
Beta-catenin/Insulin/DAPI
% E d U (+ ) b e ta c e lls
% E d U (+ ) in s u lin (+ ) c e lls […]
% E d U ( + ) in s u lin (+ ) c e lls C o n tro l
(1 picture or pasted object on this page, not shown here)
A general note: A reporter such as luciferase makes a cellular process visible.

In assay [3] the test system is β-catenin nuclear localization in primary rat islets. Briefly: β-Catenin nuclear translocation. Type of assay: cell-based. How it is done:
At the end of the treatment, cells were fixed with 4% paraformaldehyde, blocked and permeabilized, and stained by standard immunofluorescence techniques for β-catenin (Cell signaling, #9562L; dilution 1:500), NFATc1 (Santa Cruz, rabbit polyclonal, SC-7294; dilution 1:200) or NFAT3c (Santa Cruz, SC-8321; dilution 1:200) and nuclear DNA was stained with DAPI (Molecular Probes; dilution 1:1,000). EdU incorporation was measured by click reaction with AlexaFluor-647-azide (Invitrogen). Plates were imaged with confocal microscope and analysed by Metamorph (Molecular Devices).

Assay [4] concerns NFATc1-GFP localization in Ins1 cells. Briefly: NFATc1-GFP nuclear localization. As to conditions: low glucose. In kind it is cell-based. The text has this:
Figure 6 AP compounds induce β-cell proliferation through activation of the calcineurin–NFAT pathway. (a) AP compounds stimulate NFATc1-GFP nuclear localization. […] Scale bar, 50 μm. […] Scale bar, 50 μm.

In assay [5] the target is T1, RET (Homo sapiens, UniProt P07949).
T1 construct: purchased Ambit (KINOMEscan)
T1 sequence (P07949 29-1114): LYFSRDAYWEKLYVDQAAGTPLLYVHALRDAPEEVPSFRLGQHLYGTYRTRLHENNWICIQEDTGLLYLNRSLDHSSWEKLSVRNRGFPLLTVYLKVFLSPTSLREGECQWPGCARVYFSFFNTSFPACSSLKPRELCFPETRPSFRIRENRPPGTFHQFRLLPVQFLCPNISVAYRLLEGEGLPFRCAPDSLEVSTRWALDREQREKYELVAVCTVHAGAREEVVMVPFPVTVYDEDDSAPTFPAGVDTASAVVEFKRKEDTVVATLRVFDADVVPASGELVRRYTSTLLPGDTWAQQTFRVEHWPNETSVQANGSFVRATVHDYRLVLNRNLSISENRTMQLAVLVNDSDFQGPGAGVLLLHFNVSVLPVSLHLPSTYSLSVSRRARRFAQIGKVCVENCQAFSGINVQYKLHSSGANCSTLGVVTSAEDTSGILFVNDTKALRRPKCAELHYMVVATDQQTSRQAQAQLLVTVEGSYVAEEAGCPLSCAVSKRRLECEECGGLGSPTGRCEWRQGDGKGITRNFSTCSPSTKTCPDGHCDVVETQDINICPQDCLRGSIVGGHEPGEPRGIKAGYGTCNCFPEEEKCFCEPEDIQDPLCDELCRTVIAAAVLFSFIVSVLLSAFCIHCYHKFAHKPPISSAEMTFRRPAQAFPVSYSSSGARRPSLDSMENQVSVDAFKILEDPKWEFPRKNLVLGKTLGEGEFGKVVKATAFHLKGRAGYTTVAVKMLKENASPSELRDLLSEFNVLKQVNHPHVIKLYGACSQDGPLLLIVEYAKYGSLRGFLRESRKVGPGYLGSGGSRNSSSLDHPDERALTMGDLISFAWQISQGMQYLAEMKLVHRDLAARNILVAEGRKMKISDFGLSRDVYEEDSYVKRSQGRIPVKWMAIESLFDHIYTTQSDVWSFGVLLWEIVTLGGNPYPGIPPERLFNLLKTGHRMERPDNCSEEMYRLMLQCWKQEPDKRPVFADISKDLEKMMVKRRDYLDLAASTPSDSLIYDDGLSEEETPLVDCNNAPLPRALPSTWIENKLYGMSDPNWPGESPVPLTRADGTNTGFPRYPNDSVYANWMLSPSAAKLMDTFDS
Briefly: Kinase profiling. Type of assay: biochemical. As to conditions: read-out: Percent inhibition, RET; for inhibition at 1 µM: Conc 1000 nM. The text has this:
(§1) ; Fig. 5a; Supplementary Table 1). We focused on Dyrk1a because other kinases inhibited by aminopyrazine compounds were not highly expressed in β-cells and because Dyrk1a was known to inhibit the NFAT pathway that was previously implicated in β-cell proliferation. We used molecular modelling to dock the aminopyrazine compounds into the published structure of Dyrk1a (protein databank accession code 2vx3.pdb; Fig. 5b).

For assay [6], the target named is T2, Dyrk1a (Homo sapiens, UniProt Q13627).
T2 construct: purchased Ambit KINOMEscan
Briefly: Kinase profiling. Type of assay: biochemical. As to conditions: Conc 1000 nM; read-out: Percent inhibition, DYRK1a.

In assay [7] the test system is FAK2 (PTK2). Description: Kinase profiling. In kind it is biochemical, human.
Excerpt: as §1

In assay [8] the target is T3, Fyn (Homo sapiens, UniProt P06241).
T3 construct: purchased Ambit KINOMEscan
T3 sequence (P06241 whole entry): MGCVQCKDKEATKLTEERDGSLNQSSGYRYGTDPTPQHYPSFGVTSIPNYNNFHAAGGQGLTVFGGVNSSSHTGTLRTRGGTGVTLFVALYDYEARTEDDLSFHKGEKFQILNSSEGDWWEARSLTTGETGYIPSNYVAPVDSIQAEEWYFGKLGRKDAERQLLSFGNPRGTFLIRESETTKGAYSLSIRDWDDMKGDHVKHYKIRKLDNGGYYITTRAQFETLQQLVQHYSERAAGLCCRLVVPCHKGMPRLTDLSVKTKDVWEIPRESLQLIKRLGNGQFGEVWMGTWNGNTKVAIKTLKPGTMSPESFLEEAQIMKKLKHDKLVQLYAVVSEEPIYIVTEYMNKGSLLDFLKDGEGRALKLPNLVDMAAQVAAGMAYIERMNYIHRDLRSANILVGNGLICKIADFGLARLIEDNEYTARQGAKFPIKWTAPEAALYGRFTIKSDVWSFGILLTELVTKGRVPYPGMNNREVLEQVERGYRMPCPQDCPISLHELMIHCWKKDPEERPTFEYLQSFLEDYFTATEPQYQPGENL
Description: Kinase profiling. As to conditions: read-out: Percent inhibition, Fyn. In kind it is biochemical.
Excerpt: as §1

As for `Nc1ncc(-c2ccccc2)nc1C(=O)Nc1cnccc1N1CCC(C(=O)O)CC1` [GNF7156], the “insulin content of treated human islets” value in assay [1] (6.7 μM GNF7156) is given as “slightly reduced insulin content”. Further, in assay [1], the “DNA and ATP content and islet equivalent units (IEQ) compared with vehicle” value is “increases in DNA and ATP content and an increase in islet equivalent units”; the “insulin secretory capacity (GSIS)” value was “maintained insulin secretory capacity”. For the same molecule, the “induction of Wnt-driven luciferase reporter gene” value in assay [2] is “induce a Wnt-driven luciferase reporter gene”. In assay [3], the β-catenin nuclear translocation result is recorded as “induced β-catenin nuclear translocation”. The NFATc1-GFP nuclear localization entry in assay [4] was “caused marked nuclear localization of NFATc1-GFP”. Also, the inhibition at 1 µM in assay [5] worked out at 98%. Also, in assay [6], the inhibition at 1 µM came to 98%. In assay [7] (Conc 1000 nM), the “Percent inhibition, FAK2 (PTK2)” value is reported as 92%.
Consider `CC(C)Oc1ccc(F)c(-c2cnc(N)c(C(=O)Nc3cnccc3N3CCC[C@@H](C(=O)O)C3)n2)c1` [GNF4877], for which the “DNA and ATP content and islet equivalent units (IEQ) compared with vehicle” value in assay [1] is “increases in DNA and ATP content and an increase in islet equivalent units”. Further, in assay [1], the “insulin secretory capacity (GSIS)” value is “maintained insulin secretory capacity”. The “induction of Wnt-driven luciferase reporter gene” value in assay [2] is given as “induce a Wnt-driven luciferase reporter gene”. Further, in assay [4], the NFATc1-GFP nuclear localization entry is given as “caused marked nuclear localization of NFATc1-GFP”. The inhibition at 0.2 µM in assay [8] (Conc 200 nM) and in assay [5] (Conc 200 nM) was 26% each time. For the same molecule, the inhibition at 1 µM was determined as 77% in assay [8] (Conc 1000 nM) and 96% in assay [5]. The “Percent inhibition, FAK2 (PTK2)” value in assay [7] (Conc 200 nM) is 9%; in assay [7] (Conc 1000 nM) it was 70%.
